Experimental data as given in the NIST ThermoML archive (doi:10.1021/acs.jced.9b00152).
Numbers after ± are expanded uncertainties.

How the values were obtained:
[1] = Liquid, Ebulliometric method (Recirculating still)
[2] = Boiling temperature at pressure P; details: Liquid, Ebulliometric method (Recirculating still)

CC(=O)OC(C)C [1-methylethyl ethanoate]
[1]
Details	vapor or sublimation pressure [kPa]
317.77 K	20 ± 1
334.75 K	40 ± 1
345.94 K	60 ± 1
354.29 K	80 ± 1
361.79 K	101.3 ± 1.7

CCCOC(C)=O [propyl ethanoate]
Details	Boiling temperature at pressure P [°C]	vapor or sublimation pressure [kPa]
[1], 329.58 K	–	20 ± 1
[1], 347.21 K	–	40 ± 1
[1], 358.6 K	–	60 ± 1
[1], 367.13 K	–	80 ± 1
[1], 374.66 K	–	101.3 ± 1.7
[2], 14.9 kPa	49.47 ± 0.51	–
[2], 16.6 kPa	51.86 ± 0.55	–
[2], 18.56 kPa	54.62 ± 0.58	–
[2], 20 kPa	56.43 ± 0.53	–
[2], 24.75 kPa	61.56 ± 0.59	–
[2], 27.99 kPa	64.63 ± 0.57	–
[2], 33.06 kPa	68.81 ± 0.6	–
[2], 37.76 kPa	72.40 ± 0.64	–
[2], 40.07 kPa	74.06 ± 0.62	–
[2], 44.38 kPa	76.90 ± 0.64	–
[2], 48.69 kPa	79.58 ± 0.62	–
[2], 54.33 kPa	82.51 ± 0.63	–
[2], 60.03 kPa	85.5 ± 0.65	–
[2], 66.87 kPa	88.7 ± 0.66	–
[2], 73.94 kPa	91.7 ± 0.67	–
[2], 79.95 kPa	93.98 ± 0.67	–
[2], 85.25 kPa	95.92 ± 0.69	–
[2], 91.51 kPa	98.26 ± 0.7	–
[2], 101.26 kPa	101.51 ± 0.73	–

CC(=O)O [acetic acid]
Details	Boiling temperature at pressure P [°C]	vapor or sublimation pressure [kPa]
[1], 345.03 K	–	20 ± 1
[1], 363.04 K	–	40 ± 1
[1], 374.54 K	–	60 ± 1
[1], 383.32 K	–	80 ± 1
[1], 390.93 K	–	101.3 ± 1.6
[2], 17 kPa	68.2 ± 0.47	–
[2], 18.47 kPa	69.72 ± 0.54	–
[2], 20.01 kPa	71.88 ± 0.58	–
[2], 21.29 kPa	73.26 ± 0.55	–
[2], 23.18 kPa	75.34 ± 0.58	–
[2], 24.92 kPa	77.20 ± 0.59	–
[2], 27.44 kPa	79.73 ± 0.6	–
[2], 29.78 kPa	81.86 ± 0.6	–
[2], 32.78 kPa	84.39 ± 0.61	–
[2], 34.97 kPa	86.11 ± 0.61	–
[2], 39.99 kPa	89.89 ± 0.6	–
[2], 48.99 kPa	95.41 ± 0.64	–
[2], 55.76 kPa	99.12 ± 0.67	–
[2], 60.04 kPa	101.39 ± 0.67	–
[2], 64.44 kPa	103.51 ± 0.68	–
[2], 69.39 kPa	105.90 ± 0.7	–
[2], 75.23 kPa	108.5 ± 0.67	–
[2], 79.98 kPa	110.17 ± 0.67	–
[2], 83.66 kPa	111.67 ± 0.7	–
[2], 87.18 kPa	112.92 ± 0.68	–
[2], 97.08 kPa	116.43 ± 0.73	–
[2], 101.3 kPa	117.78 ± 0.71	–
